The values that follow come from PubChem BioAssay AID1963835 (Molecular Pharmacology Branch, DTP, NCI, 2024).

Values joined by “and” are separate entries in the source; they are usually repeats but may differ in a detail not shown here. Equal entries are not always repeated. A value given as a limit tells only on which side of the number the result lay.

In general, viability, T/C refers to the ratio of treated to control. In general, IC50 refers to the concentration at which inhibition is half-maximal.

The subject of this assay is 699152-130-R-J1-PDC complex spheroid viability. The assay can be described thus: Anticancer human tumor 699152-130-R-J1-PDC patient-derived pancreatic carcinoma cell line growth inhibition [POLQ]. Conditions: for viability, T/C: stronger effect = lower value. The method, boiled down: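 PDC + HUVEC + MSC complex spheroids; POLQ inhibitors ± partner drugs; top conc. at/near clinical Cmax, else 10 microM (SN-38 1 microM), half-log dilutions; 37 degrees C, 5% CO2.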
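Further: spheroids exposed to agents for 7 days before viability reading.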
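Wherever viability, T/C is given: percent of DMSO vehicle control viability so 100% = vehicle and 0% = no viable signal.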

In the case of `CC[C@@]1(O)C(=O)OCc2c1cc1n(c2=O)Cc2cc3c(CN(C)C)c(O)ccc3nc2-1`, the viability, T/C is 93.1% and 110% and 102% (compound 0.000316 µM); 97.6% and 90% and 108% (compound 0.001 µM); 98.8% and 105% and 99.5% (compound 0.00316 µM); 94.2% and 111% and 93.4% (compound 0.01 µM); 72.9% and 81.9% and 79.4% (compound 0.0316 µM); 59.6% and 68.9% and 54.6% (compound 0.1 µM). For the setting “curve of compound”, the IC50 is > 100 nM.
